The test system of this experiment is HCT116. The experiment can be described thus: In vitro cytotoxicity measured by the cell colony formation assay. The experiment is classed as cell-based. Particulars: HCT116 cells; drug concentration producing 50% inhibition of colony formation; incubated with drugs 72 h at 37° C.; colonies counted after 7 days; read-out: IN VITRO ID 50 (nm) HCT116. The protocol: In Vitro Cytotoxicity Measured by the Cell Colony Formation Assay
Four hundred cells (HCT116) were plated in 60 mm Petri dishes containing 2.7 mL of medium (modified McCoy's 5a medium containing 10% fetal bovine serum and 100 units/mL penicillin and 100 µg/mL streptomycin). The cells were incubated in a CO2 incubator at 37° C. for 5 h for attachment to the bottom of Petri dishes. The compounds identified in Example 2 were made up fresh in medium at ten times the final concentration, and then 0.3 mL of this stock solution was added to the 2.7 mL of medium in the dish. The cells were then incubated with drugs for 72 h at 37° C. At the end of incubation the drug-containing media were decanted, the dishes were rinsed with 4 mL of Hank's Balance Salt Solution (HBSS), 5 mL of fresh medium was added, and the dishes were returned to the incubator for colony formation. The cell colonies were counted using a colony counter after incubation for 7 days.

Where only a bound is given, the exact number is not on record here.

In the case of `CC(=O)O[C@@]12CO[C@@H]1C[C@H](OC(=O)Nc1ccc(F)c(F)c1)[C@@]1(C)C(=O)[C@H](O)C3=C(C)[C@@H](OC(=O)[C@H](O)[C@@H](NC(=O)OC(C)(C)C)c4ccco4)C[C@@](O)([C@@H](OC(=O)c4ccccc4)C12)C3(C)C` (some centres unmarked) [Compound 5415], the IC50 is < 1 nM.

As for `CC(=O)O[C@@]12CO[C@@H]1C[C@H](OC(=O)NC(C)(C)C)[C@@]1(C)C(=O)[C@H](O)C3=C(C)[C@@H](OC(=O)[C@H](O)[C@@H](NC(=O)OC(C)(C)C)c4ccco4)C[C@@](O)([C@@H](OC(=O)c4ccccc4)C12)C3(C)C` (some centres unmarked) [Compound 5454], the IC50 was < 10 nM.

In the case of `CCCNC(=O)O[C@H]1C[C@H]2OC[C@@]2(OC(C)=O)C2[C@H](OC(=O)c3ccccc3)[C@]3(O)C[C@H](OC(=O)[C@H](O)[C@@H](NC(=O)OC(C)(C)C)c4ccco4)C(C)=C([C@@H](O)C(=O)[C@@]21C)C3(C)C` (some centres unmarked) [Compound 5665], the IC50 is > 50 nM.

In the case of `CCNC(=O)O[C@H]1C[C@H]2OC[C@@]2(OC(C)=O)C2[C@H](OC(=O)c3ccccc3)[C@]3(O)C[C@H](OC(=O)[C@H](O)[C@@H](NC(=O)OC(C)(C)C)c4ccco4)C(C)=C([C@@H](O)C(=O)[C@@]21C)C3(C)C` (some centres unmarked) [Compound 5393], the IC50 was < 1 nM.

`C/C=C/C(=O)N[C@@H](c1ccco1)[C@@H](O)C(=O)O[C@H]1C[C@@]2(O)[C@@H](OC(=O)c3ccccc3)C3[C@](C)(C(=O)[C@H](O)C(=C1C)C2(C)C)[C@@H](OC(=O)NCC)C[C@H]1OC[C@@]31OC(C)=O` (some centres unmarked) [Compound 5822]: the IC50 is < 10 nM.

As to `C/C=C/C(=O)N[C@@H](c1ccco1)[C@@H](O)C(=O)O[C@H]1C[C@@]2(O)[C@@H](OC(=O)c3ccccc3)C3[C@](C)(C(=O)[C@H](O)C(=C1C)C2(C)C)[C@@H](OC(=O)NC1CCCCC1)C[C@H]1OC[C@@]31OC(C)=O` (some centres unmarked) [Compound 5895], the IC50 was < 1 nM.

With `CC=CC(=O)NC(c1ccco1)C(O)C(=O)OC1CC2(O)C(OC(=O)c3ccccc3)C3C4(OC(C)=O)COC4CC(OC(=O)Nc4ccc(F)c(F)c4)C3(C)C(=O)C(O)C(=C1C)C2(C)C` (centres unmarked) [Compound 5800], the IC50 was < 10 nM.

As for `CCC(C)(C)OC(=O)N[C@@H](c1ccco1)[C@@H](O)C(=O)O[C@H]1C[C@@]2(O)[C@@H](OC(=O)c3ccccc3)C3[C@](C)(C(=O)[C@H](O)C(=C1C)C2(C)C)[C@@H](OC(=O)Nc1ccc(F)c(F)c1)C[C@H]1OC[C@@]31OC(C)=O` (some centres unmarked) [Compound 6404], the IC50 was < 10 nM.

For the compound `C/C=C/C(=O)N[C@@H](c1ccco1)[C@@H](O)C(=O)O[C@H]1C[C@@]2(O)[C@@H](OC(=O)c3ccccc3)C3[C@](C)(C(=O)[C@H](O)C(=C1C)C2(C)C)[C@@H](OC(=O)Nc1ccccc1)C[C@H]1OC[C@@]31OC(C)=O` (some centres unmarked) [Compound 5757], the IC50 is < 10 nM.

For the compound `CCC(C)(C)OC(=O)N[C@@H](c1ccco1)[C@@H](O)C(=O)O[C@H]1C[C@@]2(O)[C@@H](OC(=O)c3ccccc3)C3[C@](C)(C(=O)[C@H](O)C(=C1C)C2(C)C)[C@@H](OC(=O)Nc1ccccc1)C[C@H]1OC[C@@]31OC(C)=O` (some centres unmarked) [Compound 6399], the IC50 was < 10 nM.

Consider `CC(=O)O[C@@]12CO[C@@H]1C[C@H](OC(=O)Nc1ccc(F)c(F)c1)[C@@]1(C)C(=O)[C@H](O)C3=C(C)[C@@H](OC(=O)[C@H](O)[C@@H](NC(=O)C=C(C)C)c4ccco4)C[C@@](O)([C@@H](OC(=O)c4ccccc4)C12)C3(C)C` (some centres unmarked) [Compound 5522], for which the IC50 is < 1 nM.

Consider `CC(=O)O[C@@]12CO[C@@H]1C[C@H](OC(=O)NC1CCCCC1)[C@@]1(C)C(=O)[C@H](O)C3=C(C)[C@@H](OC(=O)[C@H](O)[C@@H](NC(=O)OC(C)(C)C)c4ccco4)C[C@@](O)([C@@H](OC(=O)c4ccccc4)C12)C3(C)C` (some centres unmarked) [Compound 5373], for which the IC50 is < 10 nM.

For the compound `CCNC(=O)O[C@H]1C[C@H]2OC[C@@]2(OC(C)=O)C2[C@H](OC(=O)c3ccccc3)[C@]3(O)C[C@H](OC(=O)[C@H](O)[C@@H](NC(=O)C=C(C)C)c4ccco4)C(C)=C([C@@H](O)C(=O)[C@@]21C)C3(C)C` (some centres unmarked) [Compound 5588], the IC50 is < 1 nM.

Regarding `CC(=O)O[C@@]12CO[C@@H]1C[C@H](OC(=O)Nc1ccccc1)[C@@]1(C)C(=O)[C@H](O)C3=C(C)[C@@H](OC(=O)[C@H](O)[C@@H](NC(=O)C=C(C)C)c4ccco4)C[C@@](O)([C@@H](OC(=O)c4ccccc4)C12)C3(C)C` (some centres unmarked) [Compound 5535, N-Debenzoyl-N-isobutenyl-3′-desphenyl-3′-(2-furyl)-7-phenylcarbamoyl taxol], the IC50 is < 1 nM.
